Tests used:
[1] = Liquid, Pycnometric method
[2] = molar heat capacity at constant pressure; conditions: Liquid, metal-bellows calorimeter

COC [dimethyl ether]
Conditions | mass density, [1] [kg/m3] | molar heat capacity at constant pressure, [2] [J/K/mol]
310 K, 2000 kPa | 643.5 | 123.92
310 K, 3000 kPa | 646 | 122.08
310 K, 4000 kPa | 648 | 121.62
310 K, 5000 kPa | 650.2 | 121.16
320 K, 2000 kPa | 626 | 127.61
320 K, 3000 kPa | 628.7 | 125.77
320 K, 4000 kPa | 631.1 | 124.85
320 K, 5000 kPa | 634.3 | 124.85
330 K, 2000 kPa | 606.5 | 131.3
330 K, 3000 kPa | 609.8 | 128.53
330 K, 4000 kPa | 613.4 | 128.07
330 K, 5000 kPa | 616.5 | 127.15
340 K, 2000 kPa | 585.3 | 137.74
340 K, 3000 kPa | 589.6 | 134.98
340 K, 4000 kPa | 593.6 | 132.22
340 K, 5000 kPa | 597.4 | 129.45
350 K, 3000 kPa | 566.8 | 140.51
350 K, 4000 kPa | 572 | 137.28
350 K, 5000 kPa | 576.7 | 132.68
360 K, 3000 kPa | 540.2 | 153.87
360 K, 4000 kPa | 547.4 | 145.12
360 K, 5000 kPa | 553.5 | 136.36
